Source: US8901105B2, “Prodrug derivatives of (E)-N-methyl-N-((3-M ethylbenzofuran-2-yl)methyl)-3-(7-oxo-5,6,7,8-tetrahydro-1,8-naphthyridin-3-yl)acrylamide” (Affinium Pharmaceuticals, Inc., priority 2012, dated 2014)
Where a name gives a salt, the structure may show the parent alone. Read-outs that look alike come from different tables or passages of the source.

Tests used:
[1] = XRPD crystal form after storage; format: physicochemical; details: after 3 months at all conditions
Description: (§1) Various compounds disclosed herein have been placed on long-term solid-state stability protocol. The compounds were stored in glass vials closed with PTFE lined caps at 30° C./65% RH, 40° C./75% RH, 50° C. and 60° C. (ambient humidity). The results of the study after 4 weeks are shown in Table B1 and after 3 months in Table B2. Appearance and purity analysis were conducted using HPLC and XPRD. The HPLC analyses were conducted using standard equipment such as a Agilent HP1100 HPLC (Station ID: LZPES HPLC 04) with YMC-Pack ODS-AQ sub 3 μm, 150×4.6 mm Samples were prepared for XRPD by sprinkling ˜20 mg onto a Si wafer zero background plate and pressing the material flat to ensure the surface is smooth and level. The samples were analyzed according the equipment parameters below.

S. aureus FabI = molecular target: T1, S. aureus FabI (Staphylococcus aureus, UniProt Q6GI75); assay: Inhibition of S. aureus FabI; format: biochemical
T1 sequence (Q6GI75 1-256): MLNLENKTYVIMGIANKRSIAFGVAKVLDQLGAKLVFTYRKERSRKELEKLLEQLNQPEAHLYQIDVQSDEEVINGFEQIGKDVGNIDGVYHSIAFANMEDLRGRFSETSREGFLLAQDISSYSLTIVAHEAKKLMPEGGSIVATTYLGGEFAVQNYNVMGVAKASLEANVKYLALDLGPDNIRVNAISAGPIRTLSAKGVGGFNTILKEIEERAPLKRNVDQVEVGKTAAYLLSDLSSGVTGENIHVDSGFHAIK

[2] = Stability to gamma irradiation; format: physicochemical
Source text: There was no change in appearance and it remained partially crystalline over 1 month at all storage conditions.

[3] = Solution stability in 5% dextrose in water (D5W); format: physicochemical
[4] = Solution stability in water for injection (WFI); format: physicochemical
Escherichia coli = assay: Broth microdilution MIC; format: cell-based; details: Escherichia coli, read-out: MIC
Description: (§2) Bacterial Isolates. Organisms tested in this study are listed in Table P. Clinical isolates consisted of 5 Staphylococcus aureus (MSSA), 3 Staphylococcus aureus (HA-MRSA), 2 Staphylococcus aureus (CA-MRSA), 2 Enterococcus faecalis (VSE), 2 Streptococcus pyogenes, and 2 Escherichia coli (susceptible to most antibiotics). S. aureus ATCC 29213, E. faecalis ATCC 29212, S. pneumoniae ATCC 49619, and E. coli ATCC 25922 were tested for the purposes of quality control.
(§3) Minimal Inhibitory Concentrations (MIC) values against the selected isolates were determined using the reference broth microdilution method according to the Clinical Laboratory Standards Institute (CLSI) guidelines.
(§4) The MIC was read and recorded as the lowest concentration of drug that inhibited visible growth of the organism.

Staphylococcus aureus = assay: Broth microdilution MIC; format: cell-based; details: for MIC: Staphylococcus aureus, read-out: MIC
Description: as §2, §3, §4

[5] = Solid-state stability (HPLC % area after storage); format: physicochemical
Description: as §1, with “mm” for “mm Samples were prepared for XRPD by sprinkling ˜20 mg onto a Si wafer zero background plate and pressing the material flat to ensure the surface is smooth and level. The samples were analyzed according the equipment parameters below.”

[6] = 1 mg/mL solution, 5° C., 4 hours
[7] = 1 mg/mL solution, 5° C., 24 hours
[8] = 1 mg/mL solution, 5° C., 48 hours
[9] = 1 mg/mL solution, −20° C., 48 hours
[10] = 25 mg/mL solution, 5° C., 4 hours
[11] = 25 mg/mL solution, 5° C., 24 hours
[12] = 25 mg/mL solution, 5° C., 48 hours
[13] = 25 mg/mL solution, RT, 24 hours
[14] = 25 mg/mL solution, RT, 48 hours
[15] = 25 mg/mL solution, −20° C., 48 hours

change in crystal form (XRPD) [1]: no change in crystal form | inhibition of S. aureus FabI (S. aureus FabI): no inhibition | stability to gamma irradiation exposure ([2]; 28.6-30.9 kGy): stable to gamma irradiation | stability to gamma irradiation ([2]; crystalline, 25 to 31 kGy): stable to gamma irradiation | Solution stability [3, 6]: 0.99 mg/mL | Solution stability % Area [3, 6]: 99.4 % Area | Solution stability [3, 7]: 0.99 mg/mL | Solution stability % Area [3, 7]: 98.8 % Area | Solution stability [3, 8]: 1.00 mg/mL | Solution stability % Area [3, 8]: 98.1 % Area | Solution stability ([3]; 1 mg/mL solution, Initial): 1.00 mg/mL | Solution stability % Area ([3]; 1 mg/mL solution, Initial): 99.5 % Area | Solution stability ([3]; 1 mg/mL solution, RT, 4 hours): 0.99 mg/mL | Solution stability % Area ([3]; 1 mg/mL solution, RT, 4 hours): 99 % Area | Solution stability ([3]; 1 mg/mL solution, RT, 24 hours): 0.96 mg/mL | Solution stability % Area ([3]; 1 mg/mL solution, RT, 24 hours): 96.1 % Area | Solution stability ([3]; 1 mg/mL solution, RT, 48 hours): 0.95 mg/mL | Solution stability % Area ([3]; 1 mg/mL solution, RT, 48 hours): 93.1 % Area | Solution stability [3, 9]: 0.99 mg/mL | Solution stability % Area [3, 9]: 99.3 % Area | Solution stability [3, 10]: 24.9 mg/mL | Solution stability % Area [3, 10]: 99.3 % Area | Solution stability [3, 11]: 24.5 mg/mL | Solution stability % Area [3, 11]: 98.7 % Area | Solution stability [3, 12]: 24.5 mg/mL | Solution stability % Area [3, 12]: 98.1 % Area | Solution stability ([3]; 25 mg/mL solution, Initial): 24.4 mg/mL | Solution stability % Area ([3]; 25 mg/mL solution, Initial): 99.6 % Area | Solution stability ([3]; 25 mg/mL solution, RT, 4 hours): 24 mg/mL | Solution stability % Area ([3]; 25 mg/mL solution, RT, 4 hours): 98.9 % Area | Solution stability [3, 13]: 23.8 mg/mL | Solution stability % Area [3, 13]: 95.6 % Area | Solution stability [3, 14]: 23 mg/mL | Solution stability % Area [3, 14]: 92.1 % Area | Solution stability [3, 15]: 24.6 mg/mL | Solution stability % Area [3, 15]: 99.3 % Area | Solution stability [4, 6]: 0.96 mg/mL | Solution stability % Area [4, 6]: 99.4 % Area | Solution stability [4, 7]: 0.94 mg/mL | Solution stability % Area [4, 7]: 98.1 % Area | Solution stability [4, 8]: 0.96 mg/mL | Solution stability % Area [4, 8]: 98.1 % Area | Solution stability ([4]; 1 mg/mL solution, Initial): 0.97 mg/mL | Solution stability % Area ([4]; 1 mg/mL solution, Initial): 99.4 % Area | Solution stability ([4]; 1 mg/mL solution, RT, 4 hours): 0.94 mg/mL | Solution stability % Area ([4]; 1 mg/mL solution, RT, 4 hours): 99.0 % Area | Solution stability ([4]; 1 mg/mL solution, RT, 24 hours): 0.92 mg/mL | Solution stability % Area ([4]; 1 mg/mL solution, RT, 24 hours): 95.5 % Area | Solution stability ([4]; 1 mg/mL solution, RT, 48 hours): 0.64 mg/mL | Solution stability % Area ([4]; 1 mg/mL solution, RT, 48 hours): 92.1 % Area | Solution stability [4, 9]: 0.96 mg/mL | Solution stability % Area [4, 9]: 99.3 % Area | Solution stability [4, 10]: 25.0 mg/mL | Solution stability % Area [4, 10]: 99.3 % Area | Solution stability [4, 11]: 24.4 mg/mL | Solution stability % Area [4, 11]: 98.6 % Area | Solution stability [4, 12]: 23.1 mg/mL | Solution stability % Area [4, 12]: 98.0 % Area | Solution stability ([4]; 25 mg/mL solution, Initial): 24.05 mg/mL | Solution stability % Area ([4]; 25 mg/mL solution, Initial): 99.5 % Area | Solution stability ([4]; 25 mg/mL solution, RT, 4 hours): 23.9 mg/mL | Solution stability % Area ([4]; 25 mg/mL solution, RT, 4 hours): 98.8 % Area | Solution stability [4, 13]: 22.5 mg/mL | Solution stability % Area [4, 13]: 95.2 % Area | Solution stability [4, 14]: 22.8 mg/mL | Solution stability % Area [4, 14]: 91.5 % Area | Solution stability [4, 15]: 24.4 mg/mL | Solution stability % Area [4, 15]: 99.2 % Area | MIC (Escherichia coli; ATCC25922, E. coli ATCC 25922): > 16 µg/mL | MIC (Escherichia coli; E. coli 2214): > 16 µg/mL | MIC (Escherichia coli; E. coli 5255): > 16 µg/mL | MIC (Staphylococcus aureus; ATCC29213, S. aureus ATCC 29213): 4 µg/mL | MIC (Staphylococcus aureus; MRSA, S. aureus 3083, HA-MRSA): 4 µg/mL | MIC (Staphylococcus aureus; MRSA, S. aureus 3086, HA-MRSA): 16 µg/mL | MIC (Staphylococcus aureus; MRSA, S. aureus 3265, HA-MRSA): 16 µg/mL | MIC (Staphylococcus aureus; MSSA, S. aureus 3104, MSSA): > 16 µg/mL | MIC (Staphylococcus aureus; MSSA, S. aureus 3107, MSSA): 8 µg/mL | MIC (Staphylococcus aureus; MSSA, S. aureus 3245, MSSA): 16 µg/mL | MIC (Staphylococcus aureus; MSSA, S. aureus 3250, MSSA): 8 µg/mL | MIC (Staphylococcus aureus; MSSA, S. aureus 3856, MSSA): 16 µg/mL | MIC (Staphylococcus aureus; S. aureus 2168, CAMRSA): 4 µg/mL | MIC (Staphylococcus aureus; S. aureus 2294, CAMRSA): 16 µg/mL | Solid-state stability % Area ([5]; 3 months, 30° C./65% RH): 98.61 % Area | Solid-state stability % Area ([5]; 3 months, 40° C./75% RH): 92.75 % Area | Solid-state stability % Area ([5]; 3 months, 50° C./ambient humidity): 99.04 % Area | Solid-state stability % Area ([5]; 3 months, Control (ambient lab conditions protected from light)): 98.9 % Area | Solid-state stability % Area ([5]; 4 weeks, 30° C./65% RH): 98.5 % Area | Solid-state stability % Area ([5]; 4 weeks, 40° C./75% RH): 98.2 % Area | Solid-state stability % Area ([5]; 4 weeks, 50° C./ambient humidity): 99.3 % Area | Solid-state stability % Area ([5]; 4 weeks, 60° C./ambient humidity): 98.7 % Area | Solid-state stability % Area ([5]; 4 weeks, Control (ambient lab conditions protected from light)): 98.9 % Area | physical and chemical stability ([5]; over 3 months at 30° C./65% RH and 50° C., closed vials, light protected): physically and chemically stable
SMILES: Cc1c(CN(C)C(=O)/C=C/c2cnc3c(c2)CCC(=O)N3COP(=O)(O)O)oc2ccccc12 [Compound 10, (E)-6-[(N-methyl-((3-methylbenzofuran-2-yl)methyl)amino)-3-oxoprop-1-en-1-yl)-2-oxo-3,4-dihydro-1,8-naphthyridin-1(2H)-yl]methylphosphate bis-ethanolammonium salt]
times less activity than Compound Z (Staphylococcus aureus; panel of 11 S. aureus strains): 500-4000 times
